{"source": "patent US20230321123A1", "about": "“INHIBITORS OF PSEUDOMONAS AERUGINOSA VIRULENCE FACTOR LasB” (Helmholtz-Zentrum Für Infektionsforschung GmbH, priority 2020, published 2023)", "key": {"HDAC-8": {"target": "T1, HDAC-8 (Homo sapiens, UniProt Q9BY41)", "T1 sequence (Q9BY41 1-377)": "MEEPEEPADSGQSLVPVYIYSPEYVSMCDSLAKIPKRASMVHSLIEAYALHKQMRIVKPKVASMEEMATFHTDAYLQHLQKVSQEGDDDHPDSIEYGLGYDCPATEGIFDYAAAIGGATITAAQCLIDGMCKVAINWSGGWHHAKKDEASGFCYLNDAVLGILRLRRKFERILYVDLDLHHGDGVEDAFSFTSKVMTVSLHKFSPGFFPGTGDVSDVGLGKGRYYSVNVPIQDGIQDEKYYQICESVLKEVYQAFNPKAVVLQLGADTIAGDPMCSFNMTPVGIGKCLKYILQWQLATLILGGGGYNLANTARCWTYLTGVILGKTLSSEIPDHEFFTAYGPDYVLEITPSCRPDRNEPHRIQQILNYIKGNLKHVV", "test": "Selectivity against human off-targets: HDAC-8", "format": "biochemical", "details": "read-out: IC50 HDAC-8", "description": "(§1) The inhibition of zinc-containing human enzymes is described frequently for LasB inhibitors and poses a serious difficulty in the development of selective compounds. Particularly, the inhibition of matrix metalloproteases (MMPs) should be avoided. To further investigate this issue, three derivatives (the compounds of examples 1, 5 and 8) have been tested for their selectivity against several human off-targets, including six MMPs, ADAM17 (TACE), HDAC-3 and HDAC-8 (Table 4). The selectivity of the compounds is particularly high for MMPs and HDACs, whereas the inhibition of ADAM17 was considerably stronger."}, "Cytotoxicity A549": {"test": "Cytotoxicity A549", "format": "cell-based", "details": "human; A549", "procedure": "(§2) The compounds of examples 1 and 5 were not toxic against the cell lines HepG2, HEK293 and A549 (Table 5). Additionally, the inhibitory effect against P. aeruginosa PA14 was evaluated to exclude an antibacterial effect of the compounds of the present invention. This is important as it was the aim to target virulence and not viability of the bacteria. […]"}, "MMP-8": {"target": "MMP-8 (Homo sapiens, UniProt P22894)", "sequence (P22894 101-467)": "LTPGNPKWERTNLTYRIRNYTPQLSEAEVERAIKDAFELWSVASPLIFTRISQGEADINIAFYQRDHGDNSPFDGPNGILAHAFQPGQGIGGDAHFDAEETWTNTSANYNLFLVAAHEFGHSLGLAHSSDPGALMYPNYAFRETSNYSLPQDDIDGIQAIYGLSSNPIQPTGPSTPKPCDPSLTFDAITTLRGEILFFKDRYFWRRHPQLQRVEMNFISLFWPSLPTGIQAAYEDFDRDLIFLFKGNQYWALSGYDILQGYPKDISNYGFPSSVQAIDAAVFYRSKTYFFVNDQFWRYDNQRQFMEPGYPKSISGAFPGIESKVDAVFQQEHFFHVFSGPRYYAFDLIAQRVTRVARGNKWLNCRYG", "test": "Selectivity against human off-targets: MMP-8", "format": "biochemical", "details": "read-out: Inhibition [%] MMP-8", "description": "as §1"}, "CYP3A4": {"target": "CYP3A4 (Homo sapiens, UniProt P08684)", "sequence (P08684 whole entry)": "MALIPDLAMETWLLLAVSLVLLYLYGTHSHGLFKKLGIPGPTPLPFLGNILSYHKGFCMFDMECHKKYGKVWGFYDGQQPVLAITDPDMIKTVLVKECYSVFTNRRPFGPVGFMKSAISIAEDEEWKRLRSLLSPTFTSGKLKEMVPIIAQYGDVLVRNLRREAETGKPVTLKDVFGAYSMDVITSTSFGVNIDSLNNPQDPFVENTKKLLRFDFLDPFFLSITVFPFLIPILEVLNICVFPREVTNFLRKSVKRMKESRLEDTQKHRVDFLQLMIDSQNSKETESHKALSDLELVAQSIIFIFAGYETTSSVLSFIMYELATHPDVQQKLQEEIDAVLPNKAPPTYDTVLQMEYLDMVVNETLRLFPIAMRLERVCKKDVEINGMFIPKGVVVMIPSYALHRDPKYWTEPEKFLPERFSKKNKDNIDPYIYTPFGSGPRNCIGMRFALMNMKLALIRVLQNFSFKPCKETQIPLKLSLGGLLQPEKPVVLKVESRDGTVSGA", "test": "CYP inhibition CYP3A4", "format": "in vitro ADME", "description": "(§3) As the compound of example 2 has shown an impressive activity in the in vitro LasB inhibition assay, high selectivity over a broad spectrum of human enzymes and no signs of cytotoxicity in vitro, it has been subjected to a more advanced safety screening (Table 9)."}, "[1]": {"test": "Pharmacokinetic (PK) studies in mice", "format": "in vivo", "details": "10 mg/kg", "procedure": "Moreover, the compound of example 2 was subjected to pharmacokinetic (PK) studies in mice (Table 10). Injected intravenously (i.v.) at a dose of 10 mg/kg, it is detectable in blood for 2 h."}, "Cytotoxicity HepG2": {"test": "Cytotoxicity HepG2", "format": "cell-based", "details": "human; HepG2", "procedure": "as §2"}, "Cytotoxicity HEK293": {"test": "Cytotoxicity HEK293", "format": "cell-based", "details": "human; HEK293", "procedure": "as §2"}, "MMP-1": {"target": "T2, MMP-1 (Homo sapiens, UniProt P03956)", "T2 sequence (P03956 100-469)": "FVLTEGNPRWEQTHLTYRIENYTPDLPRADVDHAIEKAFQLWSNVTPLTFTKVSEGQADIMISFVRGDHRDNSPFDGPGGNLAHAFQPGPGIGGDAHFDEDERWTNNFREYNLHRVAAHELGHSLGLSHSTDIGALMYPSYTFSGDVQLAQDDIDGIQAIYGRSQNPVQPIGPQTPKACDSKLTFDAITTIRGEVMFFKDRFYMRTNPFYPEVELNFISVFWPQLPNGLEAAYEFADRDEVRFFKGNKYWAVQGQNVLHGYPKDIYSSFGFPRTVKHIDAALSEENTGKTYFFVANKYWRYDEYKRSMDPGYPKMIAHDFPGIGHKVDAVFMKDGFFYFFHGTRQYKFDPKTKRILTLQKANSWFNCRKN", "test": "Selectivity against human off-targets: MMP-1", "format": "biochemical", "details": "read-out: Inhibition [%] MMP-1", "description": "as §1"}, "LasB": {"target": "LasB (Pseudomonas aeruginosa, UniProt Q02RJ6)", "sequence (Q02RJ6 198-498)": "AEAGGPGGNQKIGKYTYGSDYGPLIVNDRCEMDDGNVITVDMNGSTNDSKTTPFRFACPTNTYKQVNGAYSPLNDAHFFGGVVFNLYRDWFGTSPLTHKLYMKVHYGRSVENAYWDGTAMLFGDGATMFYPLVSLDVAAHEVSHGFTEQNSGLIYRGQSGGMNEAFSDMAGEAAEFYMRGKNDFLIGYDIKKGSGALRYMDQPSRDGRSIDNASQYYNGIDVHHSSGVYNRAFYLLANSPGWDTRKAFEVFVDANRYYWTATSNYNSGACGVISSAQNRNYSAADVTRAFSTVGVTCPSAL", "test": "biochemical", "parameters": "species or system P. aeruginosa", "details": "IC50 against LasB"}, "MMP-2": {"target": "T3, MMP-2 (Homo sapiens, UniProt P08253)", "T3 sequence (P08253 110-660)": "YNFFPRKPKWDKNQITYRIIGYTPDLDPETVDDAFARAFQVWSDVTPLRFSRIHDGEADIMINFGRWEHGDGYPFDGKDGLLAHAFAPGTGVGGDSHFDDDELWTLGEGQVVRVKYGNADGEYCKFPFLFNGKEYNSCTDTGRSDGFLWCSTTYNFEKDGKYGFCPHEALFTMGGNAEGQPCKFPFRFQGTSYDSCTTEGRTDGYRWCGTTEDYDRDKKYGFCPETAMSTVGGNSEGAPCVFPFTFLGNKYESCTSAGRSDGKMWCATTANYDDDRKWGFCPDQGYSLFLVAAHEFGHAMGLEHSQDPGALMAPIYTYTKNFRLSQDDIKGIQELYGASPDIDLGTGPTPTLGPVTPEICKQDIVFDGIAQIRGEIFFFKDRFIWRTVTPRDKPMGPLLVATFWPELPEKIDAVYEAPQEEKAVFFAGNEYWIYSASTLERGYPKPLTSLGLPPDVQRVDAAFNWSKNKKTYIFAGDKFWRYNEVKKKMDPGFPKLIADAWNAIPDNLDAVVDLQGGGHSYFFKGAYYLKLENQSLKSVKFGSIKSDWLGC", "test": "Selectivity against human off-targets: MMP-2", "format": "biochemical", "details": "read-out: Inhibition [%] MMP-2", "description": "as §1"}, "CYP2C19": {"target": "CYP2C19 (Homo sapiens, UniProt P33261)", "sequence (P33261 whole entry)": "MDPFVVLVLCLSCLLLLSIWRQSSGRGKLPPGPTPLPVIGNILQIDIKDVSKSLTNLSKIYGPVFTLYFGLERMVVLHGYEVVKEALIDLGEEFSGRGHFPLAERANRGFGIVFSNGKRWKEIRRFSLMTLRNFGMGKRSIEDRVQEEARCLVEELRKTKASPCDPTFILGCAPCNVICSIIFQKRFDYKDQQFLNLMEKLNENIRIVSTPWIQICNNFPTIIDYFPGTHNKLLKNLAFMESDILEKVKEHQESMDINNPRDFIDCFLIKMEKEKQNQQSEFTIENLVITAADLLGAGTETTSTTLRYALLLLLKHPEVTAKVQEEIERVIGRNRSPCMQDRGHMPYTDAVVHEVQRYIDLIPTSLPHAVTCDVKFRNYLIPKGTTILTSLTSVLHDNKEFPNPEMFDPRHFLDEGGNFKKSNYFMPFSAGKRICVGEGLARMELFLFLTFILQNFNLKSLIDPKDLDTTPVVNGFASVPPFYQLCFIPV", "test": "CYP inhibition CYP2C19", "format": "in vitro ADME", "description": "as §3"}, "[2]": {"test": "mini-Ames reverse mutation assay", "format": "cell-based", "details": "up to 125 μg/mL", "description": "as §3"}, "CYP2D6": {"target": "CYP2D6 (Homo sapiens, UniProt P10635)", "sequence (P10635 whole entry)": "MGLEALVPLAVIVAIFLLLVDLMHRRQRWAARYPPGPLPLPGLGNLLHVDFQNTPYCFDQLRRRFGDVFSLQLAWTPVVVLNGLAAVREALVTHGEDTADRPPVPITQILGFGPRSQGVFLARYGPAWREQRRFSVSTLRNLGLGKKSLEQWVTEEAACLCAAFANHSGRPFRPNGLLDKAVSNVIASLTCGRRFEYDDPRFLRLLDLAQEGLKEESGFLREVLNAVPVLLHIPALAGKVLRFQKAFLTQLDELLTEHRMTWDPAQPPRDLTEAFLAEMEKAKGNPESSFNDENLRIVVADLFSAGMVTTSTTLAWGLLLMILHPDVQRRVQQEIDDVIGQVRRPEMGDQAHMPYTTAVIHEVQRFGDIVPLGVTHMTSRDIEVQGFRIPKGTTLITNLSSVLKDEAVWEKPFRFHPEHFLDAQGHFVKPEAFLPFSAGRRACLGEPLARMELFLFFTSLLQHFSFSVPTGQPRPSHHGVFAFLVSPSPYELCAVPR", "test": "CYP inhibition CYP2D6", "format": "in vitro ADME", "description": "as §3"}, "MMP-3": {"target": "MMP-3 (Homo sapiens, UniProt P08254)", "sequence (P08254 100-477)": "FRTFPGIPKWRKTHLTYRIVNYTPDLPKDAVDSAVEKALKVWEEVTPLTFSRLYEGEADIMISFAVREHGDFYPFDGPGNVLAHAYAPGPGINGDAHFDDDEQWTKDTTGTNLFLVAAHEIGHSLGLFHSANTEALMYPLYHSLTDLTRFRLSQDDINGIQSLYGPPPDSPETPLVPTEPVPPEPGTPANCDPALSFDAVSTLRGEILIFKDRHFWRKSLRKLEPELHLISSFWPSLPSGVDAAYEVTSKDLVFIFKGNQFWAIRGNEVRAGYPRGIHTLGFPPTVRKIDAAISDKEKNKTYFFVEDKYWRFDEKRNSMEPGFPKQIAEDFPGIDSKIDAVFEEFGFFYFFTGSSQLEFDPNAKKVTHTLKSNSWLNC", "test": "Selectivity against human off-targets: MMP-3", "format": "biochemical", "details": "read-out: Inhibition [%] MMP-3", "description": "as §1"}}}
{"smiles": "Cc1ccc(NC(=O)C(S)CC(C)C)cc1", "note": "(stereo not drawn) [Example 2, 2-Mercapto-4-methyl-N-(p-tolyl)pentanamide]", "values": [{"measurement": "IC50", "setting": "HDAC-8", "result": "> 100", "unit": "µM"}, {"measurement": "IC50", "setting": "Cytotoxicity A549", "result": "> 100", "unit": "µM"}, {"measurement": "melting point", "result": 90, "unit": "°C"}, {"measurement": "inhibition at 100 µM", "setting": "MMP-8", "result": "< 10", "unit": "%"}, {"measurement": "IC50", "setting": "CYP3A4", "result": 15, "unit": "µM"}, {"measurement": "CL/F", "setting": "[1]; i.v.", "result": "505 ± 119", "unit": "mL/min/kg"}, {"measurement": "V/F", "setting": "[1]; i.v.", "result": "45.5 ± 2.8", "unit": "L/kg"}, {"measurement": "time detectable in blood", "setting": "[1]; i.v.", "result": 2, "unit": "h"}, {"measurement": "AUC(0-t)", "setting": "[1]; mouse, blood, iv", "result": "241 ± 22", "unit": "ng·h/mL"}, {"measurement": "Cmax", "setting": "[1]; mouse, blood, iv", "result": 200, "unit": "ng/mL"}, {"measurement": "half-life", "setting": "[1]; mouse, blood, iv", "result": 50, "unit": "min"}, {"measurement": "Tmax", "setting": "[1]; mouse, blood, iv, first measuring point", "result": 15, "unit": "min"}, {"measurement": "IC50", "setting": "Cytotoxicity HepG2", "result": "> 100", "unit": "µM"}, {"measurement": "IC50", "setting": "Cytotoxicity HEK293", "result": "> 50", "unit": "µM"}, {"measurement": "inhibition at 100 µM", "setting": "MMP-1", "result": "< 10", "unit": "%"}, {"measurement": "IC50", "setting": "LasB", "result": "400 ± 130", "unit": "nM"}, {"measurement": "inhibition at 100 µM", "setting": "MMP-2", "result": "< 10", "unit": "%"}, {"measurement": "IC50", "setting": "CYP2C19", "result": 1000, "unit": "nM"}, {"measurement": "Mini-Ames genotoxicity", "setting": "[2]", "result": "no genotoxicity and No"}, {"measurement": "IC50", "setting": "CYP2D6", "result": 22.3, "unit": "µM"}, {"measurement": "inhibition at 100 µM", "setting": "MMP-3", "result": "< 10", "unit": "%"}]}
